Laboratory results from patent US11109593B2, “Isoxazolin-5-one derivative and herbicide containing same as active ingredient” (HOKKO CHEMICAL INDUSTRY CO., LTD., priority 2017, dated 2021).

Key:
Format in all cases: in vivo
Echinochloa crus-galli [1] = assay: Test Example 1: herbicidal effect test by treatment of rice paddy soil (immediately after seeding); settings: 120 g/10a active ingredient, dry weight vs untreated area, 14 days after treatment
Method in brief: (§1)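 Applied at 120 g a.i./10 ares as diluted emulsion dropped into flooded (~3 cm) paddy soil pots right after sowing seeds 0–1 cm deep; greenhouse, two replicates. At day 14, dry weight of treated versus untreated plants gives % herbicidal rate.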

Scirpus juncoides [2] = assay: as above; settings: 120 g/10a active ingredient, dry weight vs untreated area, 14 days after treatment
Method in brief: as §1

[3] = system: broad leaf weeds (Lindernia pyxidaria and Monochoria vaginalis); assay: as above; settings: 120 g/10a active ingredient, dry weight vs untreated area, 14 days after treatment
Method in brief: as §1

Echinochloa crus-galli [4] = assay: Test Example 2: herbicidal effect test by treatment during growing period in paddy rice cultivation (seven days after seeding); settings: 120 g/10a active ingredient, assessed 14 days after treatment, dry weight vs untreated area
Method in brief: (§2)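 Herbicidal rate (%) = {1 − treated/untreated mean plant dry weight} × 100, assessed in duplicate 14 days post-treatment. Emulsion formulations were diluted in water and dropped onto flooded (about 3 cm) paddy pots 7 days after seeding, giving 120 g a.i. per 10 ares. Plants were grown in a glass greenhouse.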

Scirpus juncoides [5] = assay: as above; settings: 120 g/10a active ingredient, assessed 14 days after treatment, dry weight vs untreated area
Method in brief: as §2

[6] = system: broad leaf weeds (Lindernia pyxidaria and Monochoria vaginalis); assay: as above; settings: 120 g/10a active ingredient, assessed 14 days after treatment, dry weight vs untreated area
Method in brief: as §2

Amaranthus viridis [7] = assay: Test Example 3: herbicidal effect test by treatment of dry field farming soil (one day after seeding); settings: 120 g/10a active ingredient, evaluated 14 days after treatment
Method in brief: (§3)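 Herbicidal rate (%) equals 1 minus treated/untreated mean plant dry weight, times 100, taken 14 days after treatment in duplicate pots. Emulsion diluted in water was applied at 100 L per 10 ares (120 g a.i. per 10 ares) one day after sowing 20 seeds per species into the top 1 cm of alluvial soil.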

Chenopodium album [8] = assay: as above; settings: 120 g/10a active ingredient, evaluated 14 days after treatment
Method in brief: as §3

Echinochloa crus-galli [9] = assay: as above; settings: 120 g/10a active ingredient, evaluated 14 days after treatment
Method in brief: as §3

southern crabgrass [10] = assay: as above; settings: 120 g/10a active ingredient, evaluated 14 days after treatment
Method in brief: as §3

Amaranthus viridis [11] = assay: Test Example 4: herbicidal effect test by treatment of leave and stem in dry field farming (seven days after seeding); settings: 120 g/10a active ingredient; emulsion sprayed seven days after seeding; evaluated 14 days after treatment
Description: (§4) This test was conducted in a double system per one agent solution concentration area, and the herbicidal rates (%) were determined by the following equation (Math. 1) on 14 days after the treatment with the agents. Herbicidal Rate (%)={1-(Average Dry Weight (g) of Plant of Treated Area)/(Average Dry Weight (g) of Plant of Untreated Area)}×100 [Math. 1]
(§5) Herbicidal Effect Test by Treatment of Leave and Stem in Dry Field Farming
(§6) Pots with a size of 36 cm^2 were filled with a dry field farming soil (alluvium). The soil of the top layer of 1 cm and seeds of weeds, namely southern crabgrass, Echinochloa crus-galli, Chenopodium album and Amaranthus viridis, 20 seeds each, were evenly mixed, and the top layer was gently pressed. Emulsions prepared using the compounds in Table 6 below according to Formulation Example 5 were diluted with water seven days after seeding, and the water-diluted agent solutions were sprayed to the soil surfaces at a ratio of 100 liters per 10 ares. The converted amount of the applied active ingredient corresponded to 120 g per 10 ares. The herbicidal effects were evaluated by the same standard as that in Test Example 1 on 14 days after the treatment with the agents. […] The compound numbers in Table 6 are the same as those in Table 1 and Table 2 above.

Chenopodium album [12] = assay: as above; settings: 120 g/10a active ingredient; emulsion sprayed seven days after seeding; evaluated 14 days after treatment
Description: as §4, §5, §6

Echinochloa crus-galli [13] = assay: as above; settings: 120 g/10a active ingredient; emulsion sprayed seven days after seeding; evaluated 14 days after treatment
Description: as §4, §5, §6

southern crabgrass [14] = assay: as above; settings: 120 g/10a active ingredient; emulsion sprayed seven days after seeding; evaluated 14 days after treatment
Description: as §4, §5, §6

| SMILES | Herbicidal rate (%) Echinochloa crus-galli (Echinochloa crus-galli [1]) | Herbicidal rate (%) Scirpus juncoides (Scirpus juncoides [2]) | Herbicidal rate (%) Lindernia pyxidaria [3] | Herbicidal rate (%) Monochoria vaginalis [3] | Herbicidal rate (%) Echinochloa crus-galli (Echinochloa crus-galli [4]) | Herbicidal rate (%) Scirpus juncoides (Scirpus juncoides [5]) | Herbicidal rate (%) Lindernia pyxidaria [6] | Herbicidal rate (%) Monochoria vaginalis [6] | herbicidal rate, Amaranthus viridis (Amaranthus viridis [7]) | herbicidal rate, Chenopodium album (Chenopodium album [8]) | herbicidal rate, Echinochloa crus-galli (Echinochloa crus-galli [9]) | herbicidal rate, southern crabgrass (southern crabgrass [10]) | herbicidal effect (herbicidal rate), Amaranthus viridis (Amaranthus viridis [11]) | herbicidal effect (herbicidal rate), Chenopodium album (Chenopodium album [12]) | herbicidal effect (herbicidal rate), Echinochloa crus-galli (Echinochloa crus-galli [13]) | herbicidal effect (herbicidal rate), southern crabgrass (southern crabgrass [14]) |
| --- | --- | --- | --- | --- | --- | --- | --- | --- | --- | --- | --- | --- | --- | --- | --- | --- |
| Cc1c(Cc2ccccc2N(S(=O)(=O)C(F)(F)F)S(=O)(=O)C(F)(F)F)c(=O)on1Cc1ccc(F)cc1 [Compound 1-1014] | 90% | 90% | 90% | 100% | 90% | 90% | 80% | 80% | 40% | 40% | 90% | 70% | 40% | 50% | 70% | 40% |
| Cc1c(Cc2ccccc2NS(=O)(=O)C(F)(F)F)c(=O)on1CCC(C)C [Compound 1-115] | 100% | 90% | 90% | 90% | 90% | 90% | 80% | 80% | 100% | 100% | 90% | 90% | 40% | 40% | 60% | 40% |
| Cc1c(Cc2ccccc2N(S(=O)(=O)C(F)(F)F)S(=O)(=O)C(F)(F)F)c(=O)on1CC(C)(C)C [Compound 1-968] | 90% | 90% | 90% | 90% | 90% | 90% | 90% | 90% | 90% | 90% | 90% | 90% | 40% | 40% | 90% | 90% |
| Cc1c(Cc2ccccc2N(C(=O)CC(C)C)S(=O)(=O)C(F)(F)F)c(=O)on1CC(C)C [Compound 1-354] | 100% | 90% | 90% | 90% | 100% | 90% | 70% | 90% | 90% | 90% | 90% | 80% | 40% | 40% | 80% | 60% |
| Cc1c(Cc2ccc(Cl)cc2NS(=O)(=O)C(F)(F)F)c(=O)on1C(C)C [Compound 1-37] | 60% | 90% | 80% | 40% | 40% | 0% | 40% | 40% | 0% | 40% | 70% | 40% | 40% | 80% | 90% | 40% |
| Cc1ccc(Cn2oc(=O)c(Cc3ccccc3NS(=O)(=O)C(F)(F)F)c2C)cc1 [Compound 1-191] | 90% | 90% | 100% | 90% | 90% | 90% | 80% | 80% |  |  |  |  | 80% | 40% | 90% | 40% |
| CCCCCC(c1ccccc1)n1oc(=O)c(Cc2ccccc2N(S(=O)(=O)C(F)(F)F)S(=O)(=O)C(F)(F)F)c1C (centres unmarked) [Compound 1-1042] | 90% | 90% | 90% | 80% | 60% | 70% | 60% | 60% |  |  |  |  | 40% | 40% | 0% | 50% |
| Cc1c(Cc2ccccc2NS(=O)(=O)C(F)(F)F)c(=O)on1CCCl [Compound 1-133] | 80% | 100% | 100% | 100% | 60% | 80% | 60% | 80% |  |  |  |  | 0% | 40% | 90% | 40% |
| CSCCCn1oc(=O)c(Cc2ccccc2N(S(=O)(=O)C(F)(F)F)S(=O)(=O)C(F)(F)F)c1C [Compound 1-1003] | 100% | 90% | 90% | 90% | 100% | 90% | 70% | 70% |  |  |  |  | 40% | 0% | 60% | 40% |
| CSCCn1oc(=O)c(Cc2ccccc2NS(=O)(=O)C(F)(F)F)c1C [Compound 1-162] | 100% | 100% | 100% | 100% | 90% | 80% | 70% | 80% |  |  |  |  | 50% | 60% | 90% | 60% |
